Key:
[1] = system: eosinophil influx into the lungs; assay: Aeroallergen induced eosinophil influx into the lungs of sensitized mice; assay type: in vivo; conditions: oral administration
From the text: Direct evidence on the efficacy on pimecrolimus in asthma is provided by studies showing the effect on lung eosinophilia rats. One study looked at the inhibitory effect of pimecrolimus on the aeroallergen induced eosinophil influx into the lungs of sensitized mice.

[2] = system: SCID mice reconstituted with CD4^+CD45RB^HI T cells; assay: SCID-IBD mouse model, treatment from day 1 for 4 weeks; assay type: in vivo; conditions: for loss of original BW: 4 weeks post-T cell transfer (controls lost 15-18%); for colitis, histological inflammation of colon (score 0-8): 29 days
From the text: A well-established animal model for IBD exists (see Leach et al., Am. J. Pathol., Vol. 148, No. 5, pp. 1503-1515 (1996), and Powrie et al., Int. Immunol., Vol. 5, No. 11, pp. 1461-1471 (1993)). It is known that the transfer of syngeneic, naive T lymphocytes (CD4^+CD45RB^HI) into SCID mice results in a severe colitis and wasting disease, SCID-IBD. Histopathologically, features of both CD and UC are represented in this model which has been used throughout the 1990s to bring the understanding of the pathoetiology of this disease of immune dysregulation in man to its present status. There is no other animal model of IBD which is considered relevant for the human disease, both in mechanism and in validity of clinical treatment.
In this study, SCID mice reconstituted with CD4^+CD45RB^HI T lymphocytes were used. These mice are known to develop chronic colitis with characteristics similar to human IBD, as described above.
In this study, SCID mice were reconstituted with 2 x 10^5 CD4^+CD45RB^HI T cells and then treated with pimecrolimus (30, 60 and 100 mg/kg/day) or vehicle daily p.o. for 4 weeks. […] BW was monitored throughout. On termination, blood was withdrawn, spleen, mesenteric lymph nodes (MLN) and colon were removed. Serum haptoglobin levels were measured (ELISA), colitis was assessed histologically and lymphocyte and neutrophil numbers were calculated from FACS analysis of blood, spleen and MLN cell suspensions.
In order to determine the efficacy of ASM981 treatment in preventing intestinal mucosal damage in SCID-IBD mice, a histological examination of the colon sections was performed according to defined morphological parameters. All colon sections were assessed according to a scheme awarding degrees of severity governed by the extent of cell infiltration and inflammation with a score of 8 being the maximum.

[3] = assay type: in vitro ADME, human
From the text: Pimecrolimus, when applied topically, permeates less through human (and animal) skin than, for example, FK506 and corticosteroids by factors of 9 and 60-120, respectively, indicating a lower potential to enter the systemic circulation and thus to exert systemic side effects. As is well-known, glucocorticoids are non-selective agents and are therefore associated with many systemic actions and a wide variety of side effects, whether applied topically or systemically. This is in contrast to pimecrolimus.

[4] = Pharmacokinetics after multiple oral administrations to psoriatic patients for 28 days; assay type: in vivo, human
Protocol: Table 4. Summary of Cmax and AUCτ Following Multiple Oral Administrations of Pimecrolimus to Psoriatic Patients for 28 Days
In this study pimecrolimus was rapidly absorbed with a median tmax across all the dose groups and collection days of between 0.8 and 2.0 hours. […] There was no effect of age or weight on the apparent clearance of pimecrolimus.

[5] = dose range 30-100 mg/kg/day p.o.
[6] = 20 mg b.i.d. oral, Day 13, Mean ± SD, 18720 min
[7] = 20 mg b.i.d. oral, Day 28, Mean ± SD, 40320 min
[8] = human, blood, 5 mg q.d. oral, Day 1, Mean ± SD
[9] = human, blood, 5 mg q.d. oral, Day 13, Mean ± SD
[10] = human, blood, 5 mg q.d. oral, Day 28, Mean ± SD
[11] = human, blood, 10 mg q.d. oral, Day 1, Mean ± SD
[12] = human, blood, 10 mg q.d. oral, Day 28, Mean ± SD
[13] = human, blood, 20 mg q.d. oral, Day 13, Mean ± SD
[14] = human, blood, 20 mg q.d. oral, Day 28, Mean ± SD
[15] = human, blood, 30 mg b.i.d. oral, Day 1, Mean ± SD
[16] = human, blood, 30 mg b.i.d. oral, Day 13, Mean ± SD
[17] = human, blood, 30 mg b.i.d. oral, Day 28, Mean ± SD

SMILES: CC[C@@H]1/C=C(\C)C[C@H](C)C[C@H](OC)[C@H]2O[C@@](O)(C(=O)C(=O)N3CCCC[C@H]3C(=O)O[C@H](/C(C)=C/[C@@H]3CC[C@H](Cl)[C@H](OC)C3)[C@H](C)[C@@H](O)CC1=O)[C@H](C)C[C@@H]2OC [pimecrolimus, 33-epichloro-33-desoxy-ascomycin]
- eosinophil count in the lung and eosinophil peroxidase activity [1]: able to reduce
- loss of original BW ([2]; 30 mg/kg/day p.o.): 7.1%
- colitis, histological inflammation of colon (score 0-8) ([2]; 30 mg/kg/day p.o.): moderate to severe
- block of neutrophil infiltration into the colon (MPO activity) ([2]; 60 mg/kg/day p.o.): 72%
- loss of original BW ([2]; 60 mg/kg/day p.o.): 8.8%
- colitis, histological inflammation of colon (score 0-8) ([2]; 60 mg/kg/day p.o.): moderate
- mice with macroscopically normal feces (diarrhea) ([2]; 100 mg/kg/day p.o.): Approximately half of the mice
- neutrophil infiltration into the colon (MPO activity) ([2]; 100 mg/kg/day p.o.): completely blocked
- loss of original BW ([2]; 100 mg/kg/day p.o.): 3.2%
- colitis, histological inflammation of colon (score 0-8) ([2]; 100 mg/kg/day p.o.): only mildly inflamed colons
- reduction of Haptoglobin production (serum) [2, 5]: 68-92%
- reduction of blood neutrophilia [2, 5]: 85-96%
- reduction of spleen neutrophilia [2, 5]: 74-83%
- lymphocyte numbers in MLN ([2]; up to 100 mg/kg/day p.o.): significant reduction
- lymphocyte numbers in blood or spleen ([2]; up to 100 mg/kg/day p.o.): did not significantly affect
- factor by which it permeates less through skin than FK506 [3]: 9
- factor by which it permeates less through skin than corticosteroids [3]: 60-120
- AUCτ,b ([4]; 20 mg b.i.d. oral, Day 1, Mean ± SD, 1440 min): 0.1399 ± 0.0392 µg·h/mL
- AUCτ,b [4, 6]: 0.2596 ± 0.1226 µg·h/mL
- Cmax,b [4, 6]: 0.0547 ± 0.0363 µg/mL
- AUCτ,b [4, 7]: 0.2295 ± 0.0909 µg·h/mL
- Cmax,b [4, 7]: 0.0417 ± 0.0165 µg/mL
- mean AUC at steady-state over 24 hours ([4]; 30 mg b.i.d., day 28, calculated assuming identical AUCτ for morning and evening doses): ~0.562 µg·h/mL
- AUC at 24 h ([4]; human, blood, po, 30 mg b.i.d., day 13, calculated assuming identical AUCτ for morning and evening doses, read-out: mean AUC at steady-state over 24 hours): ~0.59 µg·h/mL
- Tmax ([4]; human, blood, po, across all the dose groups and collection days, read-out: median tmax): 0.8 to 2 h
- concentration at 504 h ([4]; human, blood, po, day 21 of the 30 mg BID dose schedule, read-out: highest median blood trough concentration): 0.018 µg/mL
- half-life ([4]; human, blood, po, recorded after the final dose, read-out: terminal half-life): 50 to 100 h
- AUC tau at 24 h [4, 8]: 0.0233 ± 0.013 µg·h/mL
- Cmax at 24 h [4, 8]: 0.0087 ± 0.0023 µg/mL
- AUC tau at 312 h [4, 9]: 0.0445 ± 0.0182 µg·h/mL
- Cmax at 312 h [4, 9]: 0.0097 ± 0.0025 µg/mL
- AUC tau at 672 h [4, 10]: 0.0355 ± 0.0158 µg·h/mL
- Cmax at 672 h [4, 10]: 0.0099 ± 0.0048 µg/mL
- AUC tau at 24 h [4, 11]: 0.0806 ± 0.0314 µg·h/mL
- Cmax at 24 h [4, 11]: 0.0259 ± 0.0085 µg/mL
- Cmax at 312 h ([4]; human, blood, 10 mg q.d. oral, Day 13, Mean ± SD): 0.0218 ± 0.0079 µg/mL
- AUC tau at 672 h [4, 12]: 0.0909 ± 0.0354 µg·h/mL
- Cmax at 672 h [4, 12]: 0.024 ± 0.0092 µg/mL
- Cmax at 24 h ([4]; human, blood, 20 mg b.i.d. oral, Day 1, Mean ± SD): 0.0413 ± 0.016 µg/mL
- AUC tau at 24 h ([4]; human, blood, 20 mg q.d. oral, Day 1, Mean ± SD): 0.173 ± 0.056 µg·h/mL
- AUC tau at 312 h [4, 13]: 0.253 ± 0.0401 µg·h/mL
- Cmax at 312 h [4, 13]: 0.0553 ± 0.0214 µg/mL
- AUC tau at 672 h [4, 14]: 0.258 ± 0.0659 µg·h/mL
- Cmax at 672 h [4, 14]: 0.0583 ± 0.0254 µg/mL
- AUC tau at 24 h [4, 15]: 0.206 ± 0.064 µg·h/mL
- Cmax at 24 h [4, 15]: 0.0491 ± 0.0216 µg/mL
- AUC tau at 312 h [4, 16]: 0.295 ± 0.0601 µg·h/mL
- Cmax at 312 h [4, 16]: 0.0545 ± 0.027 µg/mL
- AUC tau at 672 h [4, 17]: 0.281 ± 0.0328 µg·h/mL
- Cmax at 672 h [4, 17]: 0.0411 ± 0.0084 µg/mL
- AUC(0-t) at 24 h ([4]; human, blood, psoriatic patients, oral, read-out: AUC(0-24) associated with a significant clinical response in the target epithelial tissue): ≥ 0.4 µg·h/mL
- Trough concentrations associated with a significant clinical response in the target epithelial tissue ([4]; human, in vivo, po): ≥ 7 ng/mL

Source: EP1649856A2, “Use of pimecrolimus for selective immunomodulation” (Novartis AG, priority 2001, dated 2002)
